Measurements reported in patent US20250206708A1, “AN OXAZIRIDINE PLATFORM FOR TARGETING FUNCTIONAL ALLOSTERIC METHIONINE SITES” (Novartis AG, priority 2022, published 2025).

Legend:
CDK4 [1] = biological target: T1, CDK4 (Homo sapiens, UniProt P11802); test: Shotgun proteomics (MS/MS) site of modification on CDK4; type: binding; conditions: 50 μM oxaziridine, 30 min, 23° C.
Experimental: To more accurately assess residue reactivity of oxaziridines on CDK4, 10 μg of CDK4 was diluted with 90 μg whole cell extract derived from mouse liver to a total volume of 100 μL in PBS. Protein mixture was treated with 50 μM oxaziridine (DMSO) and allowed to incubate at 23° C. for 30 min. Labeled protein was precipitated via addition of 900 μL MeOH at −80° C. overnight. The next day, sample was spun at max speed at 4° C. for 10 min. The pellet was gently washed 3 times with a solution of ice cold MeOH. The supernatant was then removed, and the pellet resuspended in 30 μL freshly prepared 8 M urea/PBS. A 5× stock of ProteaseMAX (Promega; cat no. V2071) was prepared by dissolved the pellet in 100 μL ammonium bicarbonate. To the protein mixture was added 30 μL 1×ProteaseMAX, 40 μL ammonium bicarbonate, and 10 μL of 110 mM freshly prepared TCEP (Pierce; cat no. 20490). […]
Peptides from all experiments were analyzed on a Q Exactive Plus mass spectrometer (Thermo Fisher Scientific); pure proteins were analyzed on a C18 only column, while complex proteomes were analyzed via a five step Multidimensional Protein Identification Technology (MudPIT).^7 In both cases, Inlines (IDEX; cat no.M-520) were fitted with ˜20 cm of 250 μm tubing and prepacked with 4 cm of Aqua C18 reverse-phase resin (Phenomenex; cat no. 04A-4299). […]
Data were analyzed with Byologic (Protein Metrics Inc.). […]

CDK4 [2] = biological target: T1, CDK4; test: Gel-based ABPP competition with Compound 303 probe on isolated CDK4; type: binding; conditions: Cy3 fluorescence readout
Experimental: Activity-based protein profiling (ABPP) was performed as follows. CDK4 was diluted in PBS to 50 nM, then 50 μL was added to each well of a 96-well PCR plate. Ligands were dissolved fresh in DMSO to 5 μM, and 1 μL was added so each well contained a unique ligand at the indicated concentration. Wells were mixed and allowed to incubate 1 h at 23° C. […] Excess oxaziridine was quenched with N-acetyl methionine via addition of 1 μL of 10 mM DMSO stock (200 μM final), wells mixed and allowed to incubate 1 h at 23° C. A stock was prepared 1:5 of 12.5 μM DBCO-Cy3 in DMSO: 1.2% SDS/PBS. To each well was added 6 μL of this stock, the wells mixed and allowed to incubate overnight protected from light at 23° C. […] Samples were loaded and separated on precast 4-20% TGX gels and scanned by ChemiDoc MP for measuring in-gel fluorescence. […]
The oxaziridine fragment library from Example 8 was screened for methionine-directed modifiers of CDK4 via a gel-based ABPP platform as described in Example 3, seen in FIG. 7B. […] DBCO-Cy3 was then introduced by strain-promoted click chemistry to provide a fluorescence readout. The samples were subsequently separated via SDS-PAGE and fluorescence signals were normalized via silver stain to triage any covalent ligands that induced general protein aggregation, which would generate a false positive Cy3 signal, as shown in FIG. 5B. […]

T1 sequence (P11802 whole entry): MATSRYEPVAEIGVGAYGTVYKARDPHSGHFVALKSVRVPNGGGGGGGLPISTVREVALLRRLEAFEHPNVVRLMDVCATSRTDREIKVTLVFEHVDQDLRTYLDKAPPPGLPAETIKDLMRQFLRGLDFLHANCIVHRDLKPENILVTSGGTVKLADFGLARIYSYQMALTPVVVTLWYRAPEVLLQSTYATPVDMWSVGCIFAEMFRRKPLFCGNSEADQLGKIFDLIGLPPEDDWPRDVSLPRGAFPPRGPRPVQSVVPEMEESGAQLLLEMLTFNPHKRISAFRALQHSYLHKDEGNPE
T1 sequence (P24385 whole entry partner): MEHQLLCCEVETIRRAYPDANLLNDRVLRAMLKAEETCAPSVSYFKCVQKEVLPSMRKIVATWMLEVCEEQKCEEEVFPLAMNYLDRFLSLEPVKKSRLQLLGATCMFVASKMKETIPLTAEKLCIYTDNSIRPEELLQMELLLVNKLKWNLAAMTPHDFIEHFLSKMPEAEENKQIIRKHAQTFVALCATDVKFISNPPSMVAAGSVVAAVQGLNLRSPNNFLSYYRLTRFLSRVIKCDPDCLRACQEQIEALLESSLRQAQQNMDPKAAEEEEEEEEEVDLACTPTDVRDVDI

## O=C(N1CC2COCC2C1)N1OC1c1ccccc1 (centres unmarked) [Compound 148]
CDK4 [1]
  site(s) of modification on CDK4: M169, with minor labeling at M264
CDK4 [2]
  competition with Compound 303 probe for CDK4 binding: competition with the Compound 303 probe for CDK4 binding in a dose-dependent manner
